What is called IC50 is the point on the concentration scale where inhibition reaches its midpoint. A lower IC50 goes with higher potency.

In this assay the test system is HeLa. Briefly: Cytotoxicity against human HeLa cells after 72 hrs by MTT assay. Type of assay: functional, cell-based. (In general: Formazan colour is commonly taken as a measure of viable cells.)
Molecule `COC(=O)[C@H](O)C/C=C\C/C=C/C[C@@H]1O[C@@]23C[C@@H]1OC(=O)C[C@H]1CCC[C@@H](C[C@@H](O)C[C@H](O)C[C@H]4O[C@@]5(CC[C@H](OC)[C@H](O5)[C@@H](O)[C@@H](O)[C@@H](C)CC[C@@H]5C[C@H](OC)C[C@](CC[C@@H]2C)(O5)O3)CC[C@@H]4C)O1` [SPIRASTRELLOLIDE B METHYL ESTER] gave an IC50 of 70 nM.

Take `CO[C@H]1C[C@H]2CC[C@H](C)[C@H](O)[C@H](O)[C@H]3O[C@]4(CC[C@@H]3OC)CC[C@H](C)[C@@H](C[C@@H](O)C[C@H](O)C[C@@H]3CCC[C@H](CC(=O)O[C@H]5C[C@@]6(O[C@H]5C/C=C/C/C=C\C[C@@H](O)C(=O)O)O[C@](CC[C@@H]6C)(C1)O2)O3)O4` [SPIRASTRELLOLIDE B]: inhibition was half-maximal at 40 nM (IC50).

In the case of `CO[C@H]1CC[C@]23C=C[C@H](C)[C@@H](C[C@@H](O)C[C@H](O)C[C@@H]4CCC[C@H](CC(=O)O[C@H]5C[C@@]6(O[C@H]5C/C=C/C/C=C\C[C@@H](O)C(=O)O)O[C@]5(CC[C@@H]6C)C[C@@H](OC)[C@H](Cl)[C@@H](CC[C@H](C)[C@H](O)[C@H](O)[C@H]1O2)O5)O4)O3` [SPIRASTRELLOLIDE A], the IC50 is 20 nM.

Regarding `COC(=O)[C@H](O)C/C=C\C/C=C/C[C@@H]1O[C@@]23C[C@@H]1OC(=O)C[C@H]1CCC[C@@H](C[C@@H](O)C[C@H](O)C[C@H]4O[C@]5(C=C[C@@H]4C)CC[C@H](OC)[C@H](O5)[C@@H](O)[C@@H](O)[C@@H](C)CC[C@H]4O[C@@](CC[C@@H]2C)(C[C@@H](OC)[C@@H]4Cl)O3)O1` [SPIRASTRELLOLIDE A METHYL ESTER], the midpoint of inhibition, the IC50, lay at 30 nM.
